The values that follow come from patent US20240373844A1, “PYROGLUTAMIC ACID AS AN HERBICIDE SAFENER AND METHODS OF USE THEREOF” (Verdesian Life Sciences U.S., LLC, priority 2021, published 2024).

This test relates to corn (Zea mays) plants. Briefly: Corn plants treated with glyphosate with and without PGA soil drench: dry biomass and leaf area (Experiment 1). The settings on record: 7 days after planting. The test is classed as in vivo. On the procedure: Corn seeds were sown in standard 10 cm diameter pots in peat-based media (Fafard #2/Sunshine Mix #8 soilless media: 75% Canadian sphagnum peat moss, 20% perlite, 5% vermiculite, trace: dolomitic limestone, wetting agent, silicon). Plants were grown under the following environmental conditions: • Temperature: 30° C. day/23° C. • Relative humidity: 60-70% • Photoperiod: 16 hours light/8 hours dark • Light intensity: 800-1000 μMols/m^2/s Treatments were administered 5 days after planting. In experiment 1, glyphosate was applied at 1%, 10%, and 100% of label rate, with and without PGA (0.137 g/L), as outlined in the table below. In Experiment 2, Bayer All-in-One® herbicide was applied at 10% and 100% of the label rate, with and without PGA (0.137 g/L). In both treatments, control plants received water. In both experiments, herbicide was applied as a 0.5 mL droplet by pipet on the 1st fully expanded leaf; PGA was applied as a 50 mL soil drench. Plants were grown in a completely randomized design for an additional 2 days to allow the treatments to take effect. At 7 days after planting, plants were photographed, and destructively harvested for leaf area and dry biomass.

In the case of `O=C(O)CNCP(=O)(O)O` [Glyphosate, glyphosate], the “Avg(DryWt)” value by setting is: (1% Label Rate Glyphosate, 0.0 g/L PGA) 0.12 g; (10% Label Rate Glyphosate, 0.0 g/L PGA) 0.06 g; (100% Label Rate Glyphosate, 0.0 g/L PGA) 0.05 g.

With `O=C1CC[C@@H](C(=O)O)N1` [PGA, pyroglutamic acid], the “Avg(DryWt)” value is, setting by setting: (0.137 g/L PGA drench with 1% Label Rate Glyphosate) 0.10 g; (0.137 g/L PGA drench with 10% Label Rate Glyphosate) 0.10 g; (0.137 g/L PGA drench, 0 Glyphosate) 0.15 g.
